Structures can show the parent of a compound that is named as a salt. Where two headings read alike, the source gives them in different places.
Molecular target: recombinant human CYP17 enzyme (Homo sapiens (Human), UniProt P05093)
Experiment: Cytochrome P450, 17-20 lyase (CYP17-lyase) assay, tritiated acetic acid release from 17-α-hydroxy pregnenolone [21-3H]
Assay type: biochemical
Conditions: human CYP17, substrate 0.25 μM
How it was run: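 Membranes of cells expressing human CYP17 incubated 90 min at room temperature with [21-3H]17α-hydroxypregnenolone and 4.2 mM NADPH in 50 mM phosphate pH 7.5. Released tritiated acetic acid separated from steroids by charcoal and counted by scintillation; IC50 from sigmoidal fit of % inhibition.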

[1] = read-out: Lyase IC 50 Human/Rat (Human)
[2] = read-out: Lyase IC 50 nM Human/Rat (Human)

recombinant human CYP17 enzyme, sequence (P05093 whole entry): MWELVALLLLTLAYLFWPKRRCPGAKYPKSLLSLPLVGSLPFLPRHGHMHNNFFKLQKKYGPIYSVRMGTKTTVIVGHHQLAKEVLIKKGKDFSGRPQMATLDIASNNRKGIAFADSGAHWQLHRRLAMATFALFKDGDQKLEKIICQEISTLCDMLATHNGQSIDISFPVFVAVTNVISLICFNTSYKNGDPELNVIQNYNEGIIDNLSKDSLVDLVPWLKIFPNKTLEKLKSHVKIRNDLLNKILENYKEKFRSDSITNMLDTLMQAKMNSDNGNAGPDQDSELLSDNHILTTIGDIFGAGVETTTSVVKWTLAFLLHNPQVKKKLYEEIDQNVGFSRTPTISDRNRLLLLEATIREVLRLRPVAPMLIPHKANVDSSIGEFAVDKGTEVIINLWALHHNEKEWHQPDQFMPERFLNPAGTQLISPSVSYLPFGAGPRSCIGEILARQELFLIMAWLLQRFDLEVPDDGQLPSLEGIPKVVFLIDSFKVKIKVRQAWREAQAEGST

How did the IC50 [1] turn out when O=C1N(c2cnc3[nH]cnc3c2)CCN1c1ccc2ncsc2c1 [Example 183A, 1-Benzothiazol-6-yl-3-(3H-imidazo[4,5-b]pyridin-6-yl)-imidazolidin-2-one] was run?
Its IC50 is > 10000 nM.

For Cc1cc(N2CCN(c3cnccc3C)C2=O)ccc1F [Example 59A, 1-(4-Fluoro-3-methyl-phenyl)-3-(4-methyl-pyridin-3-yl)-imidazolidin-2-one], which IC50 [2] is on record?
Its IC50 is 17 nM.

How did the IC50 [2] turn out when Cc1ccncc1N1CCN(c2ccc(C(F)(F)F)s2)C1=O [Example 155A, 1-(4-Methylpyridin-3-yl)-3-(5-(trifluoromethyl)thiophen-2-yl)-imidazolidin-2-one] was run?
Its IC50 is 2.7 nM.

For Nc1ccncc1N1CCN(c2ccc3ncsc3c2)C1=O [Example 152A, 1-(4-Amino-pyridin-3-yl)-3-benzothiazol-6-yl-imidazolidin-2-one Hydrochloride Salt], which IC50 [2] is on record?
The IC50 was 7 nM.

With O=C1N(c2ccc3ncsc3c2)CCN1c1cnccc1CNC1CC1 [Example 178A, 1-Benzothiazol-6-yl-3-(4-cyclopropylaminomethyl-pyridin-3-yl)-imidazolidin-2-one] as the compound, how does the IC50 [2] read?
Its IC50 is 19 nM.

Which IC50 [2] does the source give for Cc1cc(-n2ccn(-c3cnccc3C)c2=O)cs1 [Example 92A, 1-(4-Methylpyridin-3-yl)-3-(5-methylthiophen-3-yl)-1H-imidazol-2(3H)-one] here?
Its IC50 is 21 nM.

Cc1ccncc1N1CCN(c2ccc(-c3ccc(F)cc3)cc2)C1=O [Example 87A, 1-(4′-Fluoro-biphenyl-4-yl)-3-(4-methyl-pyridin-3-yl)-imidazolidin-2-one] was tested. Which IC50 [2] did it give?
Its IC50 is 255 nM.

With Cc1ccncc1N1CCN(c2ccc(F)c(Cl)c2)C1=O [Example 46A, 1-(3-Chloro-4-fluoro-phenyl)-3-(4-methyl-pyridin-3-yl)-imidazolidin-2-one] as the compound, how does the IC50 [2] read?
The IC50 was 10 nM.

Which IC50 [2] does the source give for Cc1ccncc1N1CCN(c2cccc(Cl)c2)C1=O [Example 88A, 1-(3-Chloro-phenyl)-3-(4-methyl-pyridin-3-yl)-imidazolidin-2-one] here?
Its IC50 is 12 nM.

For Cc1ccncc1N1CCN(c2ccnc(Cl)c2)C1=O [Example 58A, 1-(2-Chloro-pyridin-4-yl)-3-(4-methyl-pyridin-3-yl)-imidazolidin-2-one], which IC50 [2] is on record?
The IC50 was 27 nM.

Cc1ccncc1N1CCN(c2ccnc(N3CCCC3)c2)C1=O [Example 85A, 1-(4-Methyl-pyridin-3-yl)-3-(2-pyrrolidin-1-yl-pyridin-4-yl)-imidazolidin-2-one] was tested. Which IC50 [2] did it give?
Its IC50 is 1260 nM.

O=C1N(c2ccc3ncsc3c2)CCN1c1cnccc1Cl [Example 84A, 1-Benzothiazol-6-yl-3-(4-chloro-pyridin-3-yl)-imidazolidin-2-one] was tested. Which IC50 [2] did it give?
The IC50 was 85 nM.

For Cc1ccncc1N1CCN(c2ccc3c(c2)ncn3C)C1=O [Example 116A, 1-(1-Methyl-1H-benzoimidazol-5-yl)-3-(4-methyl-pyridin-3-yl)-trifluoroacetic Acid], which IC50 [1] is on record?
Its IC50 is > 10000 nM.

For O=C1N(c2ccc3ncsc3c2)CCN1c1cnccc1CO [Example 126A, 1-Benzothiazol-6-yl-3-(4-hydroxymethyl-pyridin-3-yl)-imidazolidin-2-one], which IC50 [2] is on record?
The IC50 was 25 nM.

With Cc1ccncc1N1CCN(c2ccc(F)c(C(F)(F)F)c2)C1=O [Example 90A, 1-(4-Fluoro-3-trifluoromethyl-phenyl)-3-(4-methyl-pyridin-3-yl)-imidazolidin-2-one] as the compound, how does the IC50 [2] read?
The IC50 was 5 nM.

How did the IC50 [2] turn out when Cc1cc(Cl)ccc1N1CCN(c2cnccc2C)C1=O [Example 89A, 1-(4-Chloro-2-methyl-phenyl)-3-(4-methyl-pyridin-3-yl)-imidazolidin-2-one] was run?
Its IC50 is 326 nM.

Cc1ccncc1N1CCN(c2cn(C)c3cccc(C#N)c23)C1=O [Example 146A, 1-Methyl-3-[3-(4-methyl-pyridin-3-yl)-2-oxo-imidazolidin-1-yl]-1H-indole-4-carbonitrile] was tested. Which IC50 [1] did it give?
The IC50 was > 10000 nM.

Which IC50 [2] does the source give for Cc1c(Cl)cncc1N1CCN(c2ccc3ncsc3c2)C1=O [Example 151A, 1-Benzothiazol-6-yl-3-(5-chloro-4-methyl-pyridin-3-yl)-imidazolidin-2-one] here?
The IC50 was 13.3 nM.

How did the IC50 [2] turn out when Cn1cncc1N1CCN(c2ccc3ncsc3c2)C1=O [Example 188A, 3-Benzothiazol-6-yl-3′-methyl-4,5-dihydro-3H,3′H-[1,4]biimidazolyl-2-one] was run?
Its IC50 is 195 nM.
